In US20240018123A1, “COMPOUND FOR INHIBITING OR DISINTEGRATING ANDROGEN RECEPTOR, AND PHARMACEUTICAL USE THEREOF” (KOREA RESEARCH INSTITUTE OF CHEMICAL TECHNOLOGY, priority 2020, published 2024):
Like-named read-outs stand apart in the source and are kept apart here.

How the values were obtained:
22RV1 cells = experiment: Cytotoxicity assessment (Cell-titer-glo cell viability), 22RV1; assay type: cell-based
Description: In order to evaluate the androgen receptor (AR) cytotoxicity of the compounds according to the present invention, the following experiment was conducted. Specifically, 1.5×10^3 (LNCaP) or 4×10^3 (VCaP, 22RV1), respectively, of LNCaP, VCaP, and 22RV1 cells were injected into each well of a 96-well plate. The next day, each well was treated with the compound at a final concentration of 3 nM, 10 nM, 30 nM, 100 nM, 300 nM, 1 μM, 3 μM, and 10 μM. […] After 6 days of treatment, Cell-titer-glo (promega) was treated and reacted for 10 minutes, and cell viability was measured with a multimode plate reader (PerkinElmer, Inc.), and the change was quantified compared to when DMSO was treated.

Androgen receptor (AR) = molecular target: T1, Androgen receptor (AR) (Homo sapiens, UniProt P10275, T878A); experiment: Assessment of AR proteolytic activity (Western blotting of LNCap cell lysates); assay type: cell-based; conditions: 24 hours of treatment, Western blotting quantified with Image J
T1 construct: 5.5×10^5 LNCap cells were injected into each well of a 6-well plate; endogenous in cells; host or cells: LNCaP
T1 sequence (P10275 1-920 T878A): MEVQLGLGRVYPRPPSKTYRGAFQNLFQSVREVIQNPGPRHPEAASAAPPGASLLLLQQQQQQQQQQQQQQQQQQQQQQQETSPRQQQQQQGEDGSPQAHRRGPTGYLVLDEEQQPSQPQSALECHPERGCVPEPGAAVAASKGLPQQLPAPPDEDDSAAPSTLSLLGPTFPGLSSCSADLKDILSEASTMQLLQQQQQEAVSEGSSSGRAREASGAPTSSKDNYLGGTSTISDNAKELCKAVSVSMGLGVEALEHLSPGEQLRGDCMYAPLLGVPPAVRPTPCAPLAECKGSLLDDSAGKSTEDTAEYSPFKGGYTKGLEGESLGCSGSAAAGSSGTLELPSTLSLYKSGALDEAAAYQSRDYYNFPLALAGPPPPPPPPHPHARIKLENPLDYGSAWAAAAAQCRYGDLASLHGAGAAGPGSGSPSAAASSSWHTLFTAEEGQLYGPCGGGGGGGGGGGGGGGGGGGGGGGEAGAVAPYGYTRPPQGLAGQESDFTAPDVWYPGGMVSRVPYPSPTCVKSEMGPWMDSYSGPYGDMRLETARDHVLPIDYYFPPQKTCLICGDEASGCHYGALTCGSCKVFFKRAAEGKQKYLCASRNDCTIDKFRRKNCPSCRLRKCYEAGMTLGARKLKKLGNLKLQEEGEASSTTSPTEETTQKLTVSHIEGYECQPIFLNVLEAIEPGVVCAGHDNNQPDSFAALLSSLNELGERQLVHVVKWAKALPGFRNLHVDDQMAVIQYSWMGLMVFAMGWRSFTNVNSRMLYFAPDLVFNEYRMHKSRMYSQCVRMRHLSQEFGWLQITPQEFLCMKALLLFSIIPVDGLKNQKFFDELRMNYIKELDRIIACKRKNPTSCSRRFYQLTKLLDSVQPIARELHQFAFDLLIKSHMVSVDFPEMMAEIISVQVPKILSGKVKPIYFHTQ
Method in brief: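 AR degradation read by Western blot densitometry on RIPA lysates (pH 7.5, protease inhibitor cocktail). Lysates came from LNCap cells, 5.5×10^5 per well, exposed to compound for 24 hours.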

LNCaP cells [1] = system: LNCaP cells
LNCaP cells [2] = experiment: Cytotoxicity assessment (Cell-titer-glo cell viability), LNCaP; conditions: read-out: LNCAP (CC50); LNCaP cells, 6 days of treatment, Cell-titer-glo, vs DMSO

Degradation (1 μM treated in LNCaP, % AR remaining) (Androgen receptor (AR)) [%]	SMILES	CC50 (22RV1 cells) [µM]	CC50 (LNCaP cells [1]) [µM]	CC50 (22RV1 cells; 22RV1 cells, 6 days of treatment, Cell-titer-glo, vs DMSO, read-out: 22RV1 (CC50)) [µM]	CC50 (LNCaP cells [2]) [µM]
47	CC1(C)[C@H](NC(=O)c2ccc(OCCOCCOCCOCCOCCOCCCNc3cccc4nnn(C5CCC(=O)NC5=O)c(=O)c34)cc2)C(C)(C)[C@H]1Oc1ccc(C#N)c(Cl)c1 (single isomer, unassigned) [Example 3, N-((1r,3r)-3-(3-chloro-4-cyanophenoxy)-2,2,4,4-tetramethylcyclobutyl)-4-((18-((3-(2,6-dioxopiperidin-3-yl)-4-oxo-3,4-dihydrobenzo[d][1,2,3]triazin-5-yl)amino)-3,6,9,12,15-pentaoxaoctadecyl)oxy)benzamide]	0.43	2.98		
58	CC1(C)[C@H](NC(=O)c2ccc(OCCOCCOCCOCCOCCOCCCNc3cccc4nnn(C5CCC(=O)NC5=O)c(=O)c34)cc2)C(C)(C)[C@H]1Oc1ccc(C#N)c(Cl)c1 (single isomer, unassigned) [Example 4, N-((1r,3r)-3-(3-chloro-4-cyanophenoxy)-2,2,4,4-tetramethylcyclobutyl)-4-((18-((3-(2,6-dioxopiperidin-3-yl)-4-oxo-3,4-dihydrobenzo[d][1,2,3]triazin-5-yl)amino)-3,6,9,12,15-pentaoxaoctadecyl)oxy)benzamide]	4.46	5.32		

SMILES	Degradation (1 μM treated in LNCaP, % AR remaining) (Androgen receptor (AR)) [%]	CC50 (22RV1 cells) [µM]	CC50 (LNCaP cells [1]) [µM]	CC50 (22RV1 cells; 22RV1 cells, 6 days of treatment, Cell-titer-glo, vs DMSO, read-out: 22RV1 (CC50)) [µM]	CC50 (LNCaP cells [2]) [µM]
CC1(C)C(NC(=O)c2ccc(OCCOCCOCCOCCOCCOCCOCCCCNc3cccc4nnn(C5CCC(=O)NC5=O)c(=O)c34)cc2)C(C)(C)C1Oc1ccc(C#N)c(Cl)c1 (stereo not drawn) [Example 6, N-((1r,3r)-3-(3-chloro-4-cyanophenoxy)-2,2,4,4-tetramethylcyclobutyl)-4-((22-((3-(2,6-dioxopiperidin-3-yl)-4-oxo-3,4-dihydrobenzo[d][1,2,3]triazin-5-yl)amino)-3,6,9,12,15,18-hexaoxadocosyl)oxy)benzamide]	66			7.1	5.93
